In paper PMC9798707, “Targeting SOST using a small-molecule compound retards breast cancer bone metastasis” (Molecular Cancer, 2022):

Molecular target: T1, SOST (Homo sapiens, UniProt Q9BQB4)
T1 construct: commercial recombinant SOST (SinoBio 10593-H07H), biotinylated and immobilized on Octet SSA biosensors
T1 sequence (Q9BQB4 24-213): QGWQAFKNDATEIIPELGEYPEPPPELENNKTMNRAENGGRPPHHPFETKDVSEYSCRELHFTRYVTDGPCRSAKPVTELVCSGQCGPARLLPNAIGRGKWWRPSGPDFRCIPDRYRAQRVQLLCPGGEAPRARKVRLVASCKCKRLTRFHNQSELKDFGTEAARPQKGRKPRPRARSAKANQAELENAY
Assay: biochemical
Design: biolayer interferometry (Octet K2), compound binding to immobilized biotinylated SOST, multi-concentration
Conditions: multi-concentration BLI, 30 C
Method: The affinity of S6 binding to SOST was measured, as described previously using an Octet K2 instrument (ForteBio). All assays were run at 30 °C with continuous shaking of 1000 RPM using the assay buffer of 0.1% BSA, 0.01% Tween-20 and 1% DMSO in PBS. SOST (10,593-H07H, SinoBio, Beijing, China) at 0.15 mg/ml was dissolved in sterile water, biotinylated and immobilized onto the Octet SSA biosensors. S6 (C29H24N6O2S, molecular weight 520.62, Chemdiv, USA) was dissolved in PBS and adjusted to different concentrations for BLI. After each round of association and disassociation, the SOST-contained sensors were washed with the assay buffer for 10 min to remove nonspecifically bound molecules. Raw kinetic data were obtained. The kon and koff values were analyzed using the software provided and the Kd values were calculated, based on double reference subtraction. We next sought to model the interaction of SOST with STAT3 and identify its inhibitors from a small-molecule chemical library (Fig. 4A). […] Subsequently, we performed virtual screening for compounds that might block the binding of SOST to STAT3 (Fig. 4C). We screened approximately 120,000 compounds and obtained 38 candidates. We tested single-concentration of them in BLI test. Data from 35 of these compounds are shown in Figure S4 and SI Table 1, except for compounds 2, 10, and 25, which could not be detected due to poor solubility. […] compounds (6, 11, 12, 17, 22, 24, 34, 38) were screened by multi-concentration gradients to obtain R2, Kd, kdis, and response parameters (Fig. 4D-E, Fig. S5 and SI Table 2). Four compounds, 6, 11, 28, and 34, were selected for drug sensitivity testing (Fig. 4F and Fig. S5). […] S6 boudn to SOST with a high affinity (Fig. 4G).

- Kd: 399 µM
- kon: 765 M⁻¹ s⁻¹
- koff (read-out: kdis): 0.305 s⁻¹
Compound: Cc1ccc(-c2nnc(Nc3ccccc3)c3ccccc23)cc1S(=O)(=O)NCc1nc2ccccc2[nH]1 [compound 6, S6]
